The record followed here is US7528138B2, “Pyrazolo[1,5-a]pyrimidines useful as inhibitors of protein kinases” (Vertex Pharmaceuticals Incorporated, priority 2004, dated 2009).

Experiment [1] deals with T1, JAK3 (Homo sapiens, UniProt P52333).
T1 sequence (P52333 1-1124): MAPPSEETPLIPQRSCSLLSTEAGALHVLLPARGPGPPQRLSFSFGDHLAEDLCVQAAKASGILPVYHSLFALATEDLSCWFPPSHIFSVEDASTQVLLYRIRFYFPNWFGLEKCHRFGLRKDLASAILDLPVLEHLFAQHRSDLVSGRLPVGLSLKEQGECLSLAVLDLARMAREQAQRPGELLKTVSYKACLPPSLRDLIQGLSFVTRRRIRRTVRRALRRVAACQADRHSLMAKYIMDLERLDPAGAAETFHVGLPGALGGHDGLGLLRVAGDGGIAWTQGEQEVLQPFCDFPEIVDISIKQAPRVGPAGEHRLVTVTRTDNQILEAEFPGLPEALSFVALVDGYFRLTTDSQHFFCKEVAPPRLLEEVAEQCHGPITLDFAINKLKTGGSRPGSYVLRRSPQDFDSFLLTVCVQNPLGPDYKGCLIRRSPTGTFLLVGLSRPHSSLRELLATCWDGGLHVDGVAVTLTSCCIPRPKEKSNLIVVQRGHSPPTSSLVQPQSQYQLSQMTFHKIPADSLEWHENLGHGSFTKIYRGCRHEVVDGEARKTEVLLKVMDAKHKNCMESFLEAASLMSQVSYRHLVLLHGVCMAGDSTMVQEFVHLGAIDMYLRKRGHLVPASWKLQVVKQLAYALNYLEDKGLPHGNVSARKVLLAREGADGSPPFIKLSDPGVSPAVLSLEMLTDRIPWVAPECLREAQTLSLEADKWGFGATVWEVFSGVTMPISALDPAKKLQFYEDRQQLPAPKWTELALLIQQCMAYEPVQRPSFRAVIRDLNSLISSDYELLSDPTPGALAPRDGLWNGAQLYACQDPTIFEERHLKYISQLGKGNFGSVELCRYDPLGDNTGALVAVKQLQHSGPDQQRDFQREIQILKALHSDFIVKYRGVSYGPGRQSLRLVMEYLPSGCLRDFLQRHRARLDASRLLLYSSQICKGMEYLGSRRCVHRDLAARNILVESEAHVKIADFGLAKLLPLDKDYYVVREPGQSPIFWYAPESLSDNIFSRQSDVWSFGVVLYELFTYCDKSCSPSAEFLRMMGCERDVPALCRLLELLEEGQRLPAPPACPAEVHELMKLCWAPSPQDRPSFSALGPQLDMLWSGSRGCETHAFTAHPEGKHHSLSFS
The experiment is described as follows: JAK3 Inhibition Assay, 33P incorporation. Type of experiment: biochemical. As to conditions: enzyme inhibition data (Ki), Table 11. The procedure, abridged: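 Recombinant JAK3 at 1 nM in HEPES pH 7.4 buffer with 10 mM MgCl2, 1 mM DTT and 0.01% BSA. Substrates were 5 μM ATP (200 uCi/μmole) and 1 μM poly(Glu)4Tyr, reacted 20 min at 25 °C. Stopped with TCA, and 33P incorporation counted on glass fiber filters.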

The target of experiment [2] is T2, Itk (Homo sapiens, UniProt Q08881).
T2 sequence (Q08881 1-620): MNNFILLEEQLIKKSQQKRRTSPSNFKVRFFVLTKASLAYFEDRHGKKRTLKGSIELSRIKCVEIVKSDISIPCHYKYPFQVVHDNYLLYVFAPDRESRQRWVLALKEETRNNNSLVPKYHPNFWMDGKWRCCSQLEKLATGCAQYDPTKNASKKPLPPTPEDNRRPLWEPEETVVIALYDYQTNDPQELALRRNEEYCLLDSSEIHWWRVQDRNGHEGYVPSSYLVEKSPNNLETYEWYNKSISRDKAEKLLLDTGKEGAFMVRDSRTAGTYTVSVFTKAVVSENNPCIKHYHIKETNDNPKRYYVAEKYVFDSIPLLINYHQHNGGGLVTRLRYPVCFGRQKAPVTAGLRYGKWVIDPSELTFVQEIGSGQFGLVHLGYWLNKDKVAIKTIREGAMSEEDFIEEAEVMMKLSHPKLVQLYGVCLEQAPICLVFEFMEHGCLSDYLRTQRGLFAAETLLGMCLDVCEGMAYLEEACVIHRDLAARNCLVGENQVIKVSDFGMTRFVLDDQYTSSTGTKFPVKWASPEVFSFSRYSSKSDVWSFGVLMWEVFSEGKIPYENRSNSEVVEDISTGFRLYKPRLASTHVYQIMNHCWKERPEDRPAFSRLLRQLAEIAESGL
As to the kind of experiment: ITK Inhibition Assay (Radiometric), radioactive-phosphate incorporation. It is filed as biochemical. As to conditions: enzyme inhibition data (Ki), Table 11; radiometric or UV assay not stated. A digest of the protocol: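 Radiometric 33P incorporation into SAM68 peptide (D332-443) with filter capture and scintillation counting; 10 min pre-incubation then 10 min reaction at 25° C. IC50 format: 30 nM Itk, 15 μM ATP, 2 μM peptide, HEPES pH 7.5. Ki(app) format: 50 nM Itk, 7.5 μM ATP, 3 μM peptide, MOPS pH 7.0.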

`CC(C)Nc1cc(-c2c(N)nn3cc(-c4ccncc4)cnc23)ncn1` [Compound V-182]: the Ki in experiment [1] and in experiment [2] was less than 500 nM in each case.

For `Nc1nn2cc(-c3ccncc3)cnc2c1-c1cc(NC2CCCCC2)ncn1` [Compound V-183], the Ki in experiment [1] is 500 to 5000 nM; in experiment [2], less than 500 nM.

For `Nc1nn2cc(-c3ccncc3)cnc2c1-c1cc(NCC2CCCCC2)ncn1` [Compound V-184], the Ki in experiment [1] is 500 to 5000 nM; in experiment [2], less than 500 nM.

`CC(C)CNc1cc(-c2c(N)nn3cc(-c4ccncc4)cnc23)ncn1` [Compound V-185]: the Ki in experiment [1] and in experiment [2] was less than 500 nM throughout.

As to `CN(C)CCN(C)C(=O)c1ccc(-c2cnc3c(-c4ccccn4)c(N)nn3c2)cc1` [Compound V-188], the Ki in experiment [1] is 500 to 5000 nM; in experiment [2], less than 500 nM.

Consider `CNCCN(C)C(=O)c1cccc(-c2cnc3c(-c4ccccn4)c(N)nn3c2)c1` [Compound V-189], for which the Ki in experiment [1] is 500 to 5000 nM; in experiment [2], less than 500 nM.

With `CNCCCN(C)C(=O)c1cccc(-c2cnc3c(-c4ccccn4)c(N)nn3c2)c1` [Compound V-190], the values for the Ki in experiment [1] and in experiment [2] were 500 to 5000 nM and less than 500 nM, respectively.

Regarding `CNCCCN(C)C(=O)c1ccc(-c2cnc3c(-c4ccccn4)c(N)nn3c2)cc1` [Compound V-191], the Ki is 500 to 5000 nM in experiment [1] and less than 500 nM in experiment [2].

In the case of `Nc1nn2cc(-c3ccc(CO)cc3)cnc2c1-c1ccccn1` [Compound V-194], the values for the Ki in experiment [1] and in experiment [2] were 500 to 5000 nM and less than 500 nM, respectively.

As for `NCc1ccc(-c2cnc3c(-c4ccccn4)c(N)nn3c2)cc1` [Compound V-195], the Ki was 500 to 5000 nM in experiment [1] and less than 500 nM in experiment [2].

In the case of `NCc1cccc(-c2cnc3c(-c4ccccn4)c(N)nn3c2)c1` [Compound V-202], the Ki in experiment [1] is greater than 5000 nM; in experiment [2], less than 500 nM.

For `CNC(=O)c1cnc2c(-c3ccccn3)c(N)nn2c1` [Compound V-204], the Ki in experiment [1] was greater than 5000 nM; in experiment [2] it was 500 to 5000 nM.

Consider `Nc1nn2cc(C(=O)NC3CCCNC3)cnc2c1-c1ccccn1` (centres unmarked) [Compound V-206], for which the Ki was greater than 5000 nM in experiment [1] and 500 to 5000 nM in experiment [2].

With `Nc1nn2cc(-c3ccc(CN4CCOCC4)cc3)cnc2c1-c1ccccn1` [Compound V-208], the values for the Ki in experiment [1] and in experiment [2] were 500 to 5000 nM and less than 500 nM, respectively.

Turning to `Nc1nn2cc(-c3ccc4[nH]ccc4c3)cnc2c1-c1ccccn1` [Compound V-212], the values for the Ki in experiment [1] and in experiment [2] were greater than 5000 nM and less than 500 nM, respectively.

As to `CN(C)Cc1ccc(-c2cnc3c(-c4ccccn4)c(N)nn3c2)cc1` [Compound V-214], the inhibitory constant (Ki) was 500 to 5000 nM in experiment [1] and less than 500 nM in experiment [2].

On to `CN(C)Cc1cccc(-c2cnc3c(-c4ccccn4)c(N)nn3c2)c1` [Compound V-215], for which the Ki is greater than 5000 nM in experiment [1] and less than 500 nM in experiment [2].

As to `COc1ccc(-c2cn3nc(N)c(-c4ccccn4)c3nc2C)cc1` [Compound V-216], the Ki was greater than 5000 nM in experiment [1] and 500 to 5000 nM in experiment [2].

As for `Nc1nn2cc(-c3ccc(CN4CCNCC4)cc3)cnc2c1-c1ccccn1` [Compound V-217], the results for the Ki in experiment [1] and in experiment [2] were 500 to 5000 nM and less than 500 nM, respectively.

For the compound `COc1ccc(-c2cnc3c(-c4ccncc4)c(N)nn3c2)cc1` [Compound V-219], the Ki in experiment [1] is greater than 5000 nM; in experiment [2], 500 to 5000 nM.

Consider `Nc1nn2cc(-c3cccc(CO)c3)cnc2c1-c1ccccn1` [Compound V-221], for which the Ki in experiment [1] and in experiment [2] was 500 to 5000 nM in each case.

Regarding `Nc1nn2cc(-c3cccc(N4CCNCC4)c3)cnc2c1-c1ccccn1` [Compound V-222], the Ki in experiment [1] was 500 to 5000 nM; in experiment [2] it was less than 500 nM.

For `Nc1nn2cc(-c3cccc(CN4CCNCC4)c3)cnc2c1-c1ccccn1` [Compound V-223], the Ki in experiment [1] is 500 to 5000 nM; in experiment [2], less than 500 nM.

With `Nc1nn2cc(-c3cccc(CN4CCOCC4)c3)cnc2c1-c1ccccn1` [Compound V-225], the results for the Ki in experiment [1] and in experiment [2] were greater than 5000 nM and 500 to 5000 nM, respectively.

Consider `NC1NN2C=C(c3cccc(CN4CC[C@@H](N)C4)c3)C=NC2=C1c1ccccn1` (some centres unmarked) [Compound V-226], for which the inhibitory constant (Ki) in experiment [1] was greater than 5000 nM; in experiment [2], less than 500 nM.

As for `NC1NN2C=C(c3cccc(CN4CC[C@H](N)C4)c3)C=NC2=C1c1ccccn1` (some centres unmarked) [Compound V-227], the Ki in experiment [1] is greater than 5000 nM; in experiment [2], less than 500 nM.

In the case of `NC1NN2C=C(c3cccc(CN4CCCNCC4)c3)C=NC2=C1c1ccccn1` (centres unmarked) [Compound V-228], the Ki in experiment [1] is greater than 5000 nM; in experiment [2] it was less than 500 nM.

Take `NC1CCN(Cc2cccc(C3=CN4NC(N)C(c5ccccn5)=C4N=C3)c2)CC1` (centres unmarked) [Compound V-229]: the figures for the Ki in experiment [1] and in experiment [2] were greater than 5000 nM and less than 500 nM, respectively.

As to `CNCCCN(C)Cc1ccc(-c2cnc3c(-c4ccccn4)c(N)nn3c2)cc1` [Compound V-230], the Ki is 500 to 5000 nM in experiment [1] and less than 500 nM in experiment [2].

With `Nc1nn2cc(-c3ccc(CN4CC[C@@H](N)C4)cc3)cnc2c1-c1ccccn1` [Compound V-231], the Ki in experiment [1] is 500 to 5000 nM; in experiment [2], less than 500 nM.

In the case of `Nc1nn2cc(-c3ccc(CNC4CCNCC4)cc3)cnc2c1-c1ccccn1` [Compound V-232], the Ki in experiment [1] was greater than 5000 nM; in experiment [2], less than 500 nM.

Regarding `Nc1nn2cc(-c3ccc(CN4CC[C@H](N)C4)cc3)cnc2c1-c1ccccn1` [Compound V-233], the Ki in experiment [1] was 500 to 5000 nM; in experiment [2], less than 500 nM.

Turning to `Nc1nn2cc(-c3ccc(CN4CCC(N)CC4)cc3)cnc2c1-c1ccccn1` [Compound V-234], the Ki was 500 to 5000 nM in experiment [1] and less than 500 nM in experiment [2].

For the compound `CNCc1ccc(-c2cnc3c(-c4ccccn4)c(N)nn3c2)cc1` [Compound V-236], the results for the Ki in experiment [1] and in experiment [2] were 500 to 5000 nM and less than 500 nM, respectively.

With `CC(C)(O)C#Cc1cnc2c(-c3ccccn3)c(N)nn2c1` [Compound V-237], the Ki in experiment [1] is 500 to 5000 nM; in experiment [2], less than 500 nM.

Regarding `Nc1nn2cc(C#CCO)cnc2c1-c1ccccn1` [Compound V-238], the Ki in experiment [1] and in experiment [2] was 500 to 5000 nM in each case.

As for `Nc1nn2cc(-c3ccncc3)cnc2c1-c1cc(Nc2ccccc2)ncn1` [Compound V-241], the Ki in experiment [1] and in experiment [2] was less than 500 nM throughout.

With `COc1ccccc1Nc1cc(-c2c(N)nn3cc(-c4ccncc4)cnc23)ncn1` [Compound V-242], the Ki in experiment [1] and in experiment [2] was less than 500 nM in each case.

On to `CC(C)CN(C)c1cc(-c2c(N)nn3cc(-c4ccncc4)cnc23)ncn1` [Compound V-243], for which the inhibitory constant (Ki) in experiment [1] and in experiment [2] was less than 500 nM each time.

Turning to `CCCN(CC)c1cc(-c2c(N)nn3cc(-c4ccncc4)cnc23)ncn1` [Compound V-244], the inhibitory constant (Ki) in experiment [1] and in experiment [2] was less than 500 nM each time.
